Assay results as given in patent US8765783B2, “Pharmaceutical composition for treatment of disease due to vascular constriction or vasodilation” (Ono Pharmaceuticals Co., Ltd., priority 2002, dated 2014).
“Also recorded” adds a separate entry of the source.

Assays:
[1] = test system: removed rat heart; assay: Removed rat heart (Langendorff heart); conditions: Langendorff heart mode; for contractive force of heart muscle: EDG-5 antagonist
Source text: Rat (CD(SD)IGS, male, Charles River Japan Inc., 8 weeks old-10 weeks old, 300-450 g) was anesthetized by diethylether, opened the abdominal cavity, injected intravenously with heparin and then, exsanguinated to death. The heart was quickly removed by opening the chest cavity and the removed heart was immersed into cooled Krebs-Henseleit solution. The tissues were trimmed away under the cooling, aortic arches were inserted into the heart functional measuring equipment and fixed with sutures without leaking out. The rat heart function was measured using the heart functional measuring equipment (model IPH-W2, Labo-support). The equipment was used in the Langendorff Heart mode (non-working heart mode) and load was 68-70 mmHg. […] Catheter filled with physiological saline was inserted into the left ventricle, the catheter was connected to the piezotransducer (DX-100, Nihon Kohden) and the left ventricle pressure (LVP) was measured through strain compression amplifier (AP-601G, Nihon Kohden). Heart rate was calculated using LVP data with the heart rate measuring equipment (AT-601G, Nihon Kohden) and dLVP/dt was calculated with differential processor (EQ-641G, Nihon Kohden). Probes of electromagnetic flowmeter (model FF-020T, inside diameter 2 mm, Nihon Kohden) were set on the way to the passage of nutrient solution and the flow rate of nutrient solution (corresponding the blood flow rate of coronary artery) was measured using electromagnetic flowmeter (MFV-3100, Nihon Kohden). Administration of S1P and the compounds was performed by injection of dilution with nutrient solution into the passage of nutrient solution using infusion pump. The injection rate of drug solution was set as the flow rate of nutrient solution before starting of administration. […] Using the above mentioned model, effect of EDG-5 antagonist on heart function was examined. […] EDG-5 antagonist, the compound (1), the compound (2) and the compound (3) increased the flow rate of nutrient solution. In addition, they increased contractive force of heart muscle at the same time. […] It was considered that S1P had no direct chronotropic action and inotropic action on pacemaker and heart muscle and S1P had lowering effect on heart function by contracting the coronary blood vessels and ischemia.

[2] = test system: canine removed renal artery; assay: Vasoconstrictor action of canine renal artery by S1P; set-up: species or system canine (beagle); conditions: for constriction of canine renal arteries: serotonin 1 μM (positive control), S1P 10 μM; for inhibitory effect on vasoconstrictive action of canine renal arteries by S1P: 10 μM test compound added 40 minutes after S1P
Source text: (§1) The removed renal arteries of euthanized male beagle (12 months old) was immersed in Krebs-Henseleit solution [112 mmol/L sodium chloride, 5.9 mmol/L potassium chloride, 2.0 mmol/L calcium chloride, 1.2 mmol/L magnesium chloride, 1.2 mmol/L monobasic sodium phosphate, 25.0 mmol/L sodium hydrogen carbonate NaHCO3, 11.5 mmol/L glucose, saturated by mixed gas (95% O2+5% CO2)]. They were divided by 3-4 mm with ophthalmic scissors and made as ringed samples. Made ringed tissues were hung in magnus tube (volume: 10 mL) filled with Krebs-Henseleit solution [37±1° C., aerated with mixed gas (95% O2+5% CO2)] using a hook. Next, they were loaded with 1 g resting tension stabilized for about 60 minutes, then constrictive movement was recorded on a recorder through strain compression amplifier (AP-601G, Nihon Kohden) from Force displacement transducer (FD pickup TB-611T). Serotonin (1 μM) is used as positive control for constriction action. After that, S1P (10 μM) adding, vasoconstrictive action was measured. As a result, serotonin and S1P constricted renal arteries.

[3] = test system: SD rat; assay: Increase of rat blood pressure by S1P; type: in vivo; conditions: anesthetized male SD rat
Procedure: Male SD Rat (8 weeks old-10 weeks old) was anesthetized by injection of pentobarbital sodium (50 mg/mL/kg), after midline incision in the cervical region, trachea was exposed by exfoliation of tracheal muscle layer and cannula made of polyethylene was inserted into trachea. Next, catheter made of polyethylene was inserted into the common carotid artery and the common jugular vein. Catheter inserted into the common carotid artery was connected to the piezotransducer and the blood pressure was recorded on the recorder through strain compression amplifier. After the above mentioned operation was finished, in the case of the spinal chord was broken, the spinal chord was broken by insertion of stainless pole into the spinal chord cavity. After the spinal chord was broken, tracheal cannula was immediately connected into the artificial breathing device for small animals and artificial ventilation was performed under the conditions of a ventilatory volume 6 mL/kg and velocity 60 times/min. After then, S1P was administered and we confirmed blood pressure was increased. […] As a result, the compound (3) inhibited the increase of blood pressure by S1P.

[4] = test system: rat removed thoracic aorta; assay: Vasoconstrictive action of rat removed thoracic aorta by S1P or phenylephrine; conditions: for constriction of rat thoracic aorta: phenylephrine 10 μM (positive control), S1P 10 μM
Source text: The removed thoracic aorta of euthanized SD rat (7-13 weeks old) was immersed in Krebs-Henseleit solution [112 mmol/L sodium chloride, 5.9 mmol/L potassium chloride, 2.0 mmol/L calcium chloride, 1.2 mmol/L magnesium chloride, 1.2 mmol/L monobasic sodium phosphate, 25.0 mmol/L sodium hydrogen carbonate NaHCO3, 11.5 mmol/L glucose, saturated by mixed gas (95% O2+5% CO2)]. They were divided by 3-4 mm with ophthalmic scissors and made as vortical samples. Made samples were hung in magnus tube (volume: 10 mL) filled with Krebs-Henseleit solution [37±1° C., aerated with mixed gas (95% O2+5% CO2)] using a hook. Next, they were loaded with 0.5 g resting tension stabilized for about 60 minutes, then constrictive movement was recorded on a recorder through strain compression amplifier (AP-601G, Nihon Kohden) from Force displacement transducer (FD pickup TB-611T). Sympathetic nerve stimulant, phenylephrine, (10 μM) is used as positive control for constriction action. After that, S1P (10 μM) adding, vasoconstrictive action was measured. As a result, phenylephrine and S1P constricted rat thoracic aorta.

[5] = test system: canine removed basilar artery; assay: Vasoconstrictor action of canine removed basilar artery by S1P; set-up: species or system canine (beagle); conditions: for constriction of canine basilar arteries: serotonin 1 μM (positive control), S1P 10 μM; for inhibitory effect on vasoconstrictive action of canine basilar artery by S1P: 10 μM test compound added 20 minutes after S1P (10 μM)
Source text: as §1, with “basilar” for “renal”
As a result, test compounds having EDG-5 antagonist activity inhibited vasoconstrictive action by S1P.

[6] = biological target: T1, human EDG-3 (Homo sapiens, UniProt Q99500); assay: Antagonist evaluation for EDG-3, intracellular calcium ion; type: cell-based; conditions: cells overexpressing human EDG-3
T1 construct: expressed in transfected cells
T1 sequence (Q99500 whole entry): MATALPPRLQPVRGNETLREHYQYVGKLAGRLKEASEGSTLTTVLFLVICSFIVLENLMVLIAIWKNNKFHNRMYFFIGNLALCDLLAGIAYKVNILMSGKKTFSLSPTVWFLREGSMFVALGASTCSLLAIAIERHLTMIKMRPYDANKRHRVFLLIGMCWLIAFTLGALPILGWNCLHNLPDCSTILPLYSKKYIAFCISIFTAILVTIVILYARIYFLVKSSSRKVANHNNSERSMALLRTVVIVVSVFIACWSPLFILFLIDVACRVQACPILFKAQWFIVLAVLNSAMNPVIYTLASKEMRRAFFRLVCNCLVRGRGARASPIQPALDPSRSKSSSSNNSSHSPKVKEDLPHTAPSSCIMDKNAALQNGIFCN

[7] = test system: canine thoracic aorta; assay: Vasoconstrictive action of canine thoracic aorta by S1P
[8] = biological target: T2, human EDG-5 (Homo sapiens, UniProt O95136); assay: Antagonistic activity for EDG-5 by monitoring concentration change of intracellular calcium ion; type: cell-based; conditions: CHO cells overexpressing human EDG-5; S1P 100 nM
T2 construct: expressed in transfected cells; host or cells: CHO cells
T2 sequence (O95136 whole entry): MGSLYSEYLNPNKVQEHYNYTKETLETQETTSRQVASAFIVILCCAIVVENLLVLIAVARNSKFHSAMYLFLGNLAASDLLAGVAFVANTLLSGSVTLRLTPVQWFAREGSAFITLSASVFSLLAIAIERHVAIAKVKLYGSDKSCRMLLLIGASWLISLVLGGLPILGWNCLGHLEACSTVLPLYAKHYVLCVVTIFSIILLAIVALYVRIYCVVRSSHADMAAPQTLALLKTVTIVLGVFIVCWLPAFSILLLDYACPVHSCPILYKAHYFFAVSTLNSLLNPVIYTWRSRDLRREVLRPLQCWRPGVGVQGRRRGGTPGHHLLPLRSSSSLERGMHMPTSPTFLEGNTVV
Procedure: Chinese hamster ovary (CHO) cells overexpressed human EDG-5 gene were cultured in Ham's F12 medium (GIBCO BRL) containing 10% FBS (fetal bovine serum), penicillin/streptomycin, and blasticidin (5 μg/ml). Cultured cells were incubated in a Fura2 (5 μM)-AM solution [Ham's F12 medium containing FBS (10%), HEPES buffer (20 mM, pH7.4), and probenecid (2.5 mM)] at 37° C. for 60 minutes. Then they were washed once with a Hank's solution (2.5 mM) containing probenecid and immersed into the same solution. A plate was set on a fluorescent drug screening system, and the concentration of intracellular calcium ion was measured for 30 seconds with no stimulation. A solution of a compound (dimethyl sulfoxide (DMSO) solution of 1 nM to 10 μM at the final concentration) to be tested was added. After lapse of 5 minutes, S1P (final concentration: 100 nM) was added, the concentration of intracellular calcium ion before and after the addition was measured every 3 seconds (excitation wave length: 340 nm and 380 nm; fluorescent wave length: 500 nm). […]

[9] = biological target: T3, human EDG-1 (Homo sapiens, UniProt P21453); assay: Antagonist evaluation for EDG-1, intracellular calcium ion; type: cell-based; conditions: cells overexpressing human EDG-1
T3 construct: expressed in transfected cells
T3 sequence (P21453 whole entry): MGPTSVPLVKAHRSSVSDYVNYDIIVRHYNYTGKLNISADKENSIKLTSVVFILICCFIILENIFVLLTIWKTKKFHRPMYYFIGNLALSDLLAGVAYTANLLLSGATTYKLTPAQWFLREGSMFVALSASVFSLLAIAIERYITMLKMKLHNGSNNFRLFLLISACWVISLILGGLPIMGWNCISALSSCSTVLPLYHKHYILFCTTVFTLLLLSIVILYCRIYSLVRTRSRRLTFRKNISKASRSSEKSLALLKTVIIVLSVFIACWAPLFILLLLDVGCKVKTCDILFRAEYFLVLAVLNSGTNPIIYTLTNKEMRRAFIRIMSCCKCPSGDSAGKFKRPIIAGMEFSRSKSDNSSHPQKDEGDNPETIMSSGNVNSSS

[10] = test system: rabbit vasoconstrictive action by S1P; assay: Rabbit vasoconstrictive action by S1P
[11] = test system: rabbit thoracic aorta; assay: Vasoconstrictive action of rabbit thoracic aorta by S1P
[12] = test system: removed rabbit portal vein/mesenteric vein; assay: Constriction of the removed rabbit vein by S1P
Procedure: The portal vein/mesenteric vein was removed form male rabbit (NZ White, about 2 kg) under anesthesia and vertical sample of width 2-3 mm and length 3-4 mm was made. Made samples were hung in magnus tube (volume: 5 mL) filled with Krebs-Henseleit solution (37° C.) using a hook. They were loaded with 0.5 g resting tension stabilized for about 60 minutes, then constrictive movement was recorded on a recorder (linear recorder WR3320: Graphtec Corp.) through strain compression amplifier (AP-601G, Nihon Kohden) from Force displacement transducer (FD pickup TB-611T).

[13] = test system: rat removed basilar artery; assay: Vasoconstrictor action of rat removed basilar artery; conditions: 3 μM (FIG. 3, FIG. 4)
Procedure: Basilar arteries were removed from male rat (CD(SD)IGS, male, Charles River Japan, Inc., 8 weeks old-10 weeks old, 350-450 g) and quickly immersed in cooled Krebs-Henseleit solution. Removed basilar arteries were divided by about 3 mm width with ophthalmic scissors and made as ringed samples. Samples hung in micro tissue organ bath (MTOB-1: Preimetech Corp.) filled with Krebs-Henseleit solution (37° C.). They were loaded with about 0.2 g resting tension stabilized for about 60 minutes, and then constrictive movement was recorded on a recorder (linearcoda WR3320: Graphtec Corp.) through strain compression amplifier (AP-601G, Nihon Kohden) from micro tissue organ bath.

Compound | constriction of canine renal arteries [2] | constriction of rat thoracic aorta [4] | constriction of canine basilar arteries [5] | IC50 [6] | flow rate of nutrient solution (corresponding the blood flow rate of coronary artery) [1] | contractive force of heart muscle [1] | IC50 [8] | IC50 [9] | inhibitory effect on vasoconstrictive action of canine renal arteries by S1P [2] | inhibitory effect on rabbit vasoconstrictive action by S1P [10] | inhibitory effect on vasoconstrictive action of canine basilar artery by S1P [5] | also measured
CCCCCCCCCCCCC/C=C/[C@@H](O)[C@@H](N)COP(=O)(O)O [Example S1P, (2S,3R,4E)-2-amino-3-hydroxyoctadeca-4-enyl-1-phosphate] | constricted | constricted | constricted | – | – | – | – | – | – | – | – | effect of S1P on contractive force of heart muscle [1]: dose-dependently decreased; effect of S1P on rat blood pressure [3]: increased
Cc1nn(C)c2nc(NNC(=O)Nc3c(Cl)cncc3Cl)cc(C(C)C)c12 [compound (1), N-(1H-1,3-dimethyl-4-isopropylpyrazolo[3,4-b]pyridin-6-yl)amino-N′-(3,5-dichloropyridin-4-yl)urea] | – | – | – | > 10 µM | increased | increased | 0.5 µM | > 10 µM | inhibited; also recorded: suppression | showed inhibitory effect | inhibited; also recorded: suppression | inhibitory effect on vasoconstrictive action of canine thoracic aorta by S1P [7]: showed inhibitory effect; inhibition of vasoconstrictive action of rat thoracic aorta by S1P ([4]; 10 μM test compound added an hour after S1P (10 μM)): specifically inhibited; also recorded: suppression; inhibition of vasoconstrictive action of rat thoracic aorta by phenylephrine ([4]; 10 μM test compound, phenylephrine 10 μM): did not inhibit; also recorded: not showing the suppression; inhibitory effect on vasoconstrictive action of rabbit thoracic aorta by S1P [11]: showed inhibitory effect
CNC[C@H](O)c1cccc(O)c1 [phenylephrine] | – | constricted | – | – | – | – | – | – | – | – | – | –
NCCc1c[nH]c2ccc(O)cc12 [serotonin] | constricted | – | constricted | – | – | – | – | – | – | – | – | –
O=C(Nc1cccc(C(F)(F)F)c1)N1CCC(O)(c2ccc(Br)cc2)CC1 [compound (2), 4-(4-bromophenyl)-4-hydroxy-N-(3-(trifluoromethyl)phenyl)-1-piperidinecarboxamide] | – | – | – | > 10 µM | increased | increased | 0.4 µM | > 10 µM | inhibited; also recorded: suppression | showed inhibitory effect | inhibited; also recorded: suppression | inhibitory effect on contraction of vein by S1P [12]: inhibitory effect; also recorded: suppression; inhibitory effect on vasoconstrictor action of rat removed basilar artery by S1P [13]: inhibitory effect; also recorded: suppression
